Patent US9618524B2, “Method, composition, isolation and identification of a plaque particle and related biomarker” (Plaxgen Inc., priority 2012, dated 2017)

Assays:
Test in all cases: Mass spectroscopy proteomics, semi-quantitative binding affinity of serum proteins (plaqueproteome, Table 2)
Settings in all cases: higher number = stronger affinity
[1] = biological target: T1, Abeta-42 plaque particles (Homo sapiens, UniProt P05067)
T1 construct: Abeta 1-42
Method: Next to isolate serum derived Abeta-42 plaque particles, the plasma or serum samples obtained from AD subjects were first centrifuged at 5,000 rpm for 5 min and the supernatants were transferred to new centrifuge tubes. Next, the supernatants were diluted in PBS to make 50% of the serum and plasma samples and used for incubation with Abeta-42 plaque oligomers/aggregates. Each assay was performed in 1 mL reaction (800 μL of 50% plasma or serum) and 200 μL (30 μg) of the Abeta-42 aggregates and the mixtures were incubated at 37° C. for 1 hr. To the mixture Thioflavin S dye (120 μg) was added and the sample was incubated for additional 30 min at 37° C. After the incubation, the mixture was directly used for sample acquisition using flow cytometer (FACS ARIA II, BD Biosciences, San Jose, Calif.). After initial detection of Abeta-42 plaque particles in the acquisition blot, gates were drawn in fluorescent dot blot to separately sort and isolate fluorescently labeled Abeta-42 particles.
(§1) For preparing trypsin digested peptide sequences, the isolated plaque particles were centrifuged at 10000 rpm for 5 min and the pellet containing plaque particles was resuspended in 100 μl PBS buffer. Stock solutions of digestion buffer (Ammonium Biocarbonate 50 mM), reducing buffer (DDT 100 mM) and alkylation buffer (lodoaceamide 100 mM) were prepared and stored at −20° C. for up to two months. For trypsin digestion, 100 μl of each plaque particles (2000 of Abeta-42, cholesterol, Tau and alpha-synuclein) were precipitated using cold acetone −80° C. by adding 4X's the volume. The samples were placed on dry ice for 10 min with intermittent vortex. Next, the samples were centrifuged at 4° C. at 10000 G for 10 min. Top layer of acetone was carefully removed from the tube with care not to disturb the plaque particles pellet. The samples were speed-vac for 10 min to ensure all acetone has been boiled away. The plaque particles pellet were reconstituted with 15 μl 8M Urea 100 mM Ammonium bicarbonate stock and 20 μl protease max solution. The protease max solution (Promega, Madison, Wis.) was prepared from stock by adding 60 μl 50 mM Ammonium bicarbonate and used for 3 solution digests (20 μl each). […] The tubes were incubated at 55° C. for 30 minutes. The tubes were then removed and brought to the room temperature followed by addition of 3.2 μl of 1M acrylamide and incubated at room temperature for 30 minutes. To the sample, 63 μL of 50 mM Ammonium bicarbonate was added for a final volume of 98 μl and 2 μl of trypsin (10 μg, Trypsin/Lys C Mix). After mixing the solution with pipet the samples were incubated at 37° C. overnight. After the overnight digest, the tryptic digest were quenched and acidified by adding 10 μl of 50% formic acid/water stock dilution. The samples were centrifuged at 10000 G for 2 minutes and purified using stage tip and used for MS/Mass analysis.
(§2) All MS/MS samples were analyzed using Sequest (Thermo Fisher Scientific, San Jose, Calif., USA; version 1.0). Sequest was set up to search the SUMS_uniprot_Human database (35847 entries) assuming the digestion enzyme strict trypsin. Sequest was searched with a fragment ion mass tolerance of 1.00 Da and a parent ion tolerance of 20 PPM. Propionamide of cysteine was specified in Sequest as a fixed modification. Oxidation of methionine and phospho of serine, threonine and tyrosine were specified in Sequest as variable modifications.
Scaffold (version Scaffold_4.2.1, Proteome Software Inc., Portland, Oreg.) was used to validate MS/MS based peptide and protein identifications. […] Protein probabilities were assigned by the Protein Prophet algorithm (Nesvizhskii, Al et al 2003). […] Proteins sharing significant peptide evidence were grouped into clusters. Proteins were annotated with GO terms from NCBI (downloaded Jan. 17, 2014).

[2] = test system: Tau plaque particles; design: species or system human
Method: For Tau-74 (74-102) (Exon 3/Insert 2 domain) preparation, 1 mg of Tau-74 was suspended in 1 mL of PBS and the sample was incubated at 37° C. for 2 hrs. Similarly for preparing Tau-275 (275-305) (Repeat 2 domain) 1 mg of the peptide was suspended in 1 mL of PBS and the sample was incubated at 37° C. for 2 hrs. After incubation, all the samples were centrifuged for 5 min. at 5000 rpm to remove precipitate, if any, and the supernatant containing oligomers/aggregates were used for in vitro amyloid plaque particles formation assay. For detecting Tau plaque particles, Thioflavin S (Ex/Em=430 nm/550 nm) amyloid binding fluorescent dye (10 μg) was used in the assay.
Next, to isolate Tau plaque particles, as performed for Abeta-42 and Abeta-28 plaque particles isolation, diluted serum samples were used for incubation separately with Tau-45, Tau-74 and Tau-275 oligomers/aggregates. Each assay was performed in 1 mL reaction (800 μL of 50% plasma or serum) and 200 μL (30 μg) of each Tau aggregates and the mixtures were incubated at 37° C. for 1 hr. To the each mixture Thioflavin S dye (120 μg) was added and the sample was incubated for additional 30 min at 37° C. After the incubation, each sample was directly used for sample acquisition using flow cytometer (FACS ARIA II, BD Biosciences, San Jose, Calif.). After initial detection of Tau plaque particles, gates were drawn in the acquisition blot to separately sort and isolate fluorescently labeled Tau plaque particles.
as §1, §2

[3] = test system: Low density cholesterol (Chl small) plaque particles; design: species or system human
Method: (§3) The goal was to isolate plaque particles synthesized in the bio-fluids in a relatively pure form to enable their subsequent use for identification of components that contribute to the plaque formation. In order to isolate cholesterol plaque particles, the plasma or serum samples obtained from atherosclerotic subjects were first centrifuged at 5,000 rpm for 5 min and the supernatants were transferred to new centrifuge tubes. Next, the supernatants were diluted in PBS to make 50% of the serum and used for incubation with cholesterol oligomers/aggregates. Each assay was performed in 1 mL reaction (800 μL of 50% plasma or serum) and 200 μL (30 μg) of the Cholesterol aggregates and the mixtures were incubated at 37° C. for 1 hr After the incubation, the mixture was directly used for sample acquisition using flow cytometer (FACS ARIA II, BD Biosciences, San Jose, Calif.). […] In order to isolate these fractions, three sets of gates were drawn in the acquisition blot to separately sort and isolate High density or high complex cholesterol particles, Low density or low complex cholesterol particles and both High and low density cholesterol particles together.
as §1, §2
(§4) Scaffold (version Scaffold_4.2.1, Proteome Software Inc., Portland, Oreg.) was used to validate MS/MS based peptide and protein identifications. […] Protein probabilities were assigned by the Protein Prophet algorithm (Nesvizhskii, Al et al 2003).

[4] = test system: High Density cholesterol (Chl Large) plaque particles; design: species or system human
Method: as §3, §1, §2, §4

[5] = biological target: T2, alpha-synuclein plaque particles (Homo sapiens, UniProt P37840)
T2 construct: 140 amino acids polypeptide
Method: To prepare oligomers/aggregates of human alpha-synuclein (140 amino acids polypeptide), 1 mg of the recombinant alpha-synuclein protein was suspended in 1 mL of PBS and the sample was incubated at 37° C. for 2 hrs. After incubation, all the samples were centrifuged for 5 min. at 5000 rpm to remove precipitate, if any, and the supernatant containing oligomers/aggregates were used in vitro plaque particles formation assay. For detecting alpha-synuclein plaque particles Thioflavin S (Ex/Em=430 nm/550 nm) amyloid binding fluorescent dye (10 μg) was used.
Similarly, to isolate alpha-synuclein plaque particles, diluted plasma or serum samples obtained from AD subjects were used for incubation with alpha-synuclein plaque oligomers/aggregates. Each assay was performed in 1 mL reaction (800 μL of 50% plasma or serum) and 200 μL (30 μg) of the alpha-synuclein aggregates and the mixtures were incubated at 37° C. for 1 hr. To the mixture Thioflavin S dye (120 μg) was added and the sample was incubated for additional 30 min at 37° C. After the incubation, the mixture was directly used for sample acquisition using flow cytometer (FACS ARIA II, BD Biosciences, San Jose, Calif.). After initial detection of alpha-synuclein plaque particles, gates were drawn in the acquisition blot to separately sort and isolate fluorescently labeled alpha-synuclein particles.
as §1, §2
Scaffold (version Scaffold_4.2.1, Proteome Software Inc., Portland, Oreg.) was used to validate MS/MS based peptide and protein identifications.

Substance	Semi-quantitative analysis of proteins binding to different plaque particles: Abeta-42 [1]	Semi-quantitative analysis of proteins binding to different plaque particles: Tau [2]	Semi-quantitative analysis of proteins binding to different plaque particles: Chl small [3]	Semi-quantitative analysis of proteins binding to different plaque particles: Chl Large [4]	Semi-quantitative analysis of proteins binding to different plaque particles: Synuclein [5]
Cluster of Alpha-2-macroglobulin	32	45	43	43	44
Cluster of Complement C3	63	85	67	73	71
Cluster of Desmoplakin	12	0	0	0	0
Cluster of Haptoglobin	25	26	31	29	24
Cluster of Hemoglobin subunit beta	4	3	2	3	5
Cluster of Histone H1.2	2	0	0	0	0
Cluster of Ig gamma-1 chain C region	23	37	63	57	56
Cluster of Ig heavy chain V-III region TEI	7	5	6	5	4
Cluster of Ig kappa chain V-I region HK102	5	1	1	1	1
Cluster of Ig lambda-2 chain C regions	9	11	9	5	8
Cluster of Nucleolar RNA helicase 2	2	0	0	0	0
Cluster of Platelet factor 4	2	1	0	1	1
Coagulation factor XII	0	1	0	0	1
